Data taken from PubChem BioAssay AID220 (DTP/NCI, 2004).
Values joined by “and” are separate entries in the source; they are usually repeats but may differ in a detail not shown here. Equal values may be shown once. Records with an inconclusive call do not appear.

System: CD8F1 mice, subcutaneous mammary adenocarcinoma, T/C%
Test: NCI In Vivo Anticancer Drug Screen. Data for tumor model Mammary Adenocarcinoma CD8F1 (subcutaneous) in CD8F1
Details: higher = larger tumour
Method in brief: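 Transplantable tumors were established in mice, animals were dosed with compound or vehicle, and survival or tumor size was then measured in both groups. The treated result was divided by the control result.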

[1] = endpoint: median tumor weight (est.), dose: 25.0 mg/kg/injection, schedule: Q07DX005 (ip), vehicle: saline
[2] = endpoint: median tumor weight (est.), dose: 50.0 mg/kg/injection, schedule: Q07DX005 (ip), vehicle: Klucel (hydroxypropylcellulose) (HPC)
[3] = endpoint: median tumor weight (est.), dose: 50.0 mg/kg/injection, schedule: Q07DX005 (ip), vehicle: saline
[4] = endpoint: median tumor weight (est.), dose: 200.0 mg/kg/injection, schedule: Q07DX005 (ip), vehicle: Klucel (hydroxypropylcellulose) (HPC)
[5] = endpoint: median tumor weight (est.), dose: 12.5 mg/kg/injection, schedule: Q07DX005 (ip), vehicle: suspension in saline
[6] = endpoint: median tumor weight (est.), dose: 25.0 mg/kg/injection, schedule: Q07DX005 (ip), vehicle: suspension in saline
[7] = endpoint: median tumor weight (est.), dose: 50.0 mg/kg/injection, schedule: Q07DX005 (ip), vehicle: suspension in saline
[8] = endpoint: median tumor weight (est.), dose: 100.0 mg/kg/injection, schedule: Q07DX005 (ip), vehicle: suspension in saline

CC1(C)CC(=O)C(CSC(=O)c2ccccc2)C(=O)C1
T/C (endpoint: median tumor weight (est.), dose: 6.25 mg/kg/injection, schedule: Q07DX005 (ip), vehicle: Klucel (hydroxypropylcellulose) (HPC)): 182 % of control
T/C (endpoint: median tumor weight (est.), dose: 6.25 mg/kg/injection, schedule: Q07DX005 (ip), vehicle: saline): 55 % of control
T/C (endpoint: median tumor weight (est.), dose: 12.5 mg/kg/injection, schedule: Q07DX005 (ip), vehicle: saline): 102 % of control
T/C [1]: 158 % of control
T/C [2]: 39 % of control
T/C [3]: 73 % of control
T/C (endpoint: median tumor weight (est.), dose: 100.0 mg/kg/injection, schedule: Q07DX005 (ip), vehicle: Klucel (hydroxypropylcellulose) (HPC)): 187 % of control
T/C (endpoint: median tumor weight (est.), dose: 100.0 mg/kg/injection, schedule: Q07DX005 (ip), vehicle: saline): 64 % of control
T/C [4]: 57 % of control

CC(=O)O[C@@H]1CO[C@H]2O[C@H]3[C@@H](C(C=O)=C[C@H](O)[C@@H]4C5=C(C(C)C)CC[C@]5(C)CC[C@@]34C)[C@@]2(O)C1=O
T/C (endpoint: median tumor weight change, dose: 3.75 mg/kg/injection, schedule: Q01DX001 (ip), vehicle: Klucel (hydroxypropylcellulose) (HPC)): 36 % of control
T/C (endpoint: median tumor weight change, dose: 15.0 mg/kg/injection, schedule: Q01DX001 (ip), vehicle: Klucel (hydroxypropylcellulose) (HPC)): 63 % of control and 74 % of control

[I][Hg][CH2]C1COC([CH2][Hg][I])CO1 (stereo unspecified)
T/C (endpoint: median tumor weight (est.), dose: 6.25 mg/kg/injection, schedule: Q07DX005 (ip), vehicle: suspension in saline): 103 % of control
T/C [5]: 167 % of control
T/C [6]: 227 % of control
T/C [7]: 27 % of control

CCCCCCCCCCCCCCCCCC(=O)Nc1ccn(C2OC(CO)C(O)C2O)c(=O)n1 (stereo unspecified)
T/C (endpoint: median tumor weight (est.), dose: 12.5 mg/kg/injection, schedule: Q07DX005 (ip), vehicle: saline with Tween-80): 98 % of control
T/C [5]: 93 % of control
T/C (endpoint: median tumor weight (est.), dose: 25.0 mg/kg/injection, schedule: Q07DX005 (ip), vehicle: saline with Tween-80): 52 % of control
T/C [6]: 27 % of control
T/C (endpoint: median tumor weight (est.), dose: 50.0 mg/kg/injection, schedule: Q07DX005 (ip), vehicle: saline with Tween-80): 49 % of control
T/C [7]: 45 % of control
T/C (endpoint: median tumor weight (est.), dose: 77.0 mg/kg/injection, schedule: Q07DX005 (ip), vehicle: saline with Tween-80): 25 % of control
T/C (endpoint: median tumor weight (est.), dose: 100.0 mg/kg/injection, schedule: Q07DX005 (ip), vehicle: saline with Tween-80): 13 % of control
T/C [8]: 53 % of control
T/C (endpoint: median tumor weight (est.), dose: 118.0 mg/kg/injection, schedule: Q07DX005 (ip), vehicle: saline with Tween-80): 7 % of control

O=c1[nH]cc(F)c(=O)[nH]1
T/C (endpoint: mean tumor weight (est.), dose: 50.0 mg/kg/injection, schedule: Q07DX004 (ip), vehicle: saline): 28 % of control
T/C (endpoint: mean tumor weight (est.), dose: 50.0 mg/kg/injection, schedule: Q07DX004 (iv), vehicle: saline): 25 % of control
T/C (endpoint: mean tumor weight (est.), dose: 100.0 mg/kg/injection, schedule: Q07DX003 (ip), vehicle: saline): 15 % of control
T/C (endpoint: mean tumor weight (est.), dose: 100.0 mg/kg/injection, schedule: Q07DX004 (ip), vehicle: saline): 2 % of control
T/C (endpoint: mean tumor weight (est.), dose: 100.0 mg/kg/injection, schedule: Q07DX004 (iv), vehicle: saline): 3 % of control
T/C (endpoint: mean tumor weight (est.), dose: 115.0 mg/kg/injection, schedule: Q07DX003 (ip), vehicle: saline): 14 % of control
T/C (endpoint: mean tumor weight (est.), dose: 130.0 mg/kg/injection, schedule: Q07DX003 (ip), vehicle: saline): 5 % of control
T/C (endpoint: mean tumor weight, dose: 5.0 mg/kg/injection, schedule: Q01DX009 (ip), vehicle: saline): 159 % of control
T/C (endpoint: mean tumor weight, dose: 10.0 mg/kg/injection, schedule: Q01DX009 (ip), vehicle: saline): 199 % of control
T/C (endpoint: mean tumor weight, dose: 20.0 mg/kg/injection, schedule: Q01DX009 (ip), vehicle: saline): 4 % of control
T/C (endpoint: mean tumor weight, dose: 25.0 mg/kg/injection, schedule: Q07DX006 (ip), vehicle: saline): 105 % of control
T/C (endpoint: mean tumor weight, dose: 25.0 mg/kg/injection, schedule: Q07DX007 (ip), vehicle: saline): 92 % of control
T/C (endpoint: mean tumor weight, dose: 50.0 mg/kg/injection, schedule: Q07DX006 (ip), vehicle: saline): 10 % of control
T/C (endpoint: mean tumor weight, dose: 50.0 mg/kg/injection, schedule: Q07DX007 (ip), vehicle: saline): 11 % of control
T/C (endpoint: median tumor weight (est.), dose: 5.0 mg/kg/injection, schedule: Q01DX005 (ip), vehicle: saline): 176 % of control
T/C (endpoint: median tumor weight (est.), dose: 10.0 mg/kg/injection, schedule: Q01DX005 (ip), vehicle: saline): 20 % of control
T/C (endpoint: median tumor weight (est.), dose: 15.0 mg/kg/injection, schedule: Q04DX005 (ip), vehicle: saline): 17 % of control
T/C (endpoint: median tumor weight (est.), dose: 15.0 mg/kg/injection, schedule: Q07DX005 (ip), vehicle: saline): 4 % of control
T/C (endpoint: median tumor weight (est.), dose: 20.0 mg/kg/injection, schedule: Q01DX005 (ip), vehicle: saline): 49 % of control
T/C (endpoint: median tumor weight (est.), dose: 25.0 mg/kg/injection, schedule: Q01DX005 (ip), vehicle: saline): 39 % of control
T/C (endpoint: median tumor weight (est.), dose: 25.0 mg/kg/injection, schedule: Q04DX005 (ip), vehicle: saline): 30 % of control
T/C [1]: 19 % of control
T/C (endpoint: median tumor weight (est.), dose: 27.0 mg/kg/injection, schedule: Q07DX005 (ip), vehicle: saline): 86 % of control
T/C (endpoint: median tumor weight (est.), dose: 30.0 mg/kg/injection, schedule: Q04DX005 (ip), vehicle: saline): 24 % of control
T/C (endpoint: median tumor weight (est.), dose: 30.0 mg/kg/injection, schedule: Q07DX005 (ip), vehicle: saline): 5 % of control
T/C (endpoint: median tumor weight (est.), dose: 37.5 mg/kg/injection, schedule: Q01DX005 (ip), vehicle: saline): 14 % of control
T/C (endpoint: median tumor weight (est.), dose: 37.5 mg/kg/injection, schedule: Q04DX005 (ip), vehicle: saline): 24 % of control
T/C (endpoint: median tumor weight (est.), dose: 37.5 mg/kg/injection, schedule: Q07DX005 (ip), vehicle: saline): 27 % of control
T/C (endpoint: median tumor weight (est.), dose: 40.0 mg/kg/injection, schedule: Q07DX005 (ip), vehicle: saline): 48 % of control
T/C (endpoint: median tumor weight (est.), dose: 50.0 mg/kg/injection, schedule: Q04DX005 (ip), vehicle: saline): 9 % of control
T/C [3]: 2 % of control
T/C (endpoint: median tumor weight (est.), dose: 60.0 mg/kg/injection, schedule: Q07DX005 (ip), vehicle: saline): 18 % of control
T/C (endpoint: median tumor weight (est.), dose: 89.0 mg/kg/injection, schedule: Q01DX001 (ip), vehicle: saline): 30 % of control
T/C (endpoint: median tumor weight (est.), dose: 90.0 mg/kg/injection, schedule: Q07DX005 (ip), vehicle: saline): 9 % of control
T/C (endpoint: median tumor weight (est.), dose: 133.0 mg/kg/injection, schedule: Q01DX001 (ip), vehicle: saline): 22 % of control
T/C (endpoint: median tumor weight (est.), dose: 200.0 mg/kg/injection, schedule: Q01DX001 (ip), vehicle: saline): 21 % of control
T/C (endpoint: median tumor weight (est.), dose: 270.0 mg/kg/injection, schedule: Q01DX001 (ip), vehicle: saline): 17 % of control
T/C (endpoint: median tumor weight change, dose: 25.0 mg/kg/injection, schedule: Q01DX001 (ip), vehicle: saline): 103 % of control
T/C (endpoint: median tumor weight change, dose: 50.0 mg/kg/injection, schedule: Q01DX001 (ip), vehicle: saline): 61 % of control
T/C (endpoint: median tumor weight change, dose: 100.0 mg/kg/injection, schedule: Q01DX001 (ip), vehicle: saline): 33 % of control

CC(=O)CC(c1ccccc1)c1c(O)c2ccccc2oc1=O (stereo unspecified)
T/C (endpoint: median tumor weight change, dose: 0.01 mg/kg/injection, schedule: Q01DX001 (ip), vehicle: Klucel (hydroxypropylcellulose) (HPC)): 183 % of control
T/C (endpoint: median tumor weight change, dose: 0.02 mg/kg/injection, schedule: Q01DX001 (ip), vehicle: Klucel (hydroxypropylcellulose) (HPC)): 157 % of control
T/C (endpoint: median tumor weight change, dose: 0.05 mg/kg/injection, schedule: Q01DX001 (ip), vehicle: Klucel (hydroxypropylcellulose) (HPC)): 196 % of control
T/C (endpoint: median tumor weight change, dose: 0.1 mg/kg/injection, schedule: Q01DX001 (ip), vehicle: Klucel (hydroxypropylcellulose) (HPC)): 203 % of control
T/C (endpoint: median tumor weight change, dose: 0.2 mg/kg/injection, schedule: Q01DX001 (ip), vehicle: Klucel (hydroxypropylcellulose) (HPC)): 192 % of control

O=C(c1cccnc1)c1cc(-c2ccccn2)c(=O)n2ccccc12
T/C (endpoint: median tumor weight change, dose: 125.0 mg/kg/injection, schedule: Q01DX001 (ip), vehicle: saline with Tween-80): 182 % of control
T/C (endpoint: median tumor weight change, dose: 250.0 mg/kg/injection, schedule: Q01DX001 (ip), vehicle: saline with Tween-80): 77 % of control
T/C (endpoint: median tumor weight change, dose: 500.0 mg/kg/injection, schedule: Q01DX001 (ip), vehicle: saline with Tween-80): 78 % of control
T/C (endpoint: median tumor weight change, dose: 1000.0 mg/kg/injection, schedule: Q01DX001 (ip), vehicle: saline with Tween-80): 56 % of control
T/C (endpoint: median tumor weight change, dose: 2000.0 mg/kg/injection, schedule: Q01DX001 (ip), vehicle: saline with Tween-80): 110 % of control

Cc1cc(C)c(-c2cc(O)c(C)cc2O)c(C)c1
T/C (endpoint: median tumor weight (est.), dose: 12.5 mg/kg/injection, schedule: Q07DX005 (ip), vehicle: Klucel (hydroxypropylcellulose) (HPC)): 56 % of control
T/C (endpoint: median tumor weight (est.), dose: 25.0 mg/kg/injection, schedule: Q07DX005 (ip), vehicle: Klucel (hydroxypropylcellulose) (HPC)): 150 % of control and 267 % of control
T/C [2]: 81 % of control
T/C [4]: 71 % of control
T/C (endpoint: median tumor weight (est.), dose: 400.0 mg/kg/injection, schedule: Q07DX005 (ip), vehicle: Klucel (hydroxypropylcellulose) (HPC)): 28 % of control

O=Cc1ccc(O)c(O)c1
T/C [8]: 160 % of control
